Measurements as given in article PMC5274716, “Phosphorylation of Staphylococcus aureus Protein-Tyrosine Kinase Affects the Function of Glucokinase and Biofilm Formation” (Iranian Biomedical Journal, 2017).

Biological target: T1, Phosphorylated rglkA (Staphylococcus aureus, UniProt H6UH58)
T1 construct: gene glcK; recombinant from clone glkA1, nickel-column purified (His tag implied); phosphorylated in vitro by S. aureus rBYK (tyrosine; site not determined)
Experiment: coupled glucose-6-phosphate dehydrogenase assay, […] nm; Hanes-Woolf plot
Type: biochemical
Details: ATP, 0.5 mM MgCl2, NADP, 60 mM Tris-HCl pH 7.5, 37 °C; enzyme phosphorylated by BYK

T1 sequence (H6UH58 entry or part of it): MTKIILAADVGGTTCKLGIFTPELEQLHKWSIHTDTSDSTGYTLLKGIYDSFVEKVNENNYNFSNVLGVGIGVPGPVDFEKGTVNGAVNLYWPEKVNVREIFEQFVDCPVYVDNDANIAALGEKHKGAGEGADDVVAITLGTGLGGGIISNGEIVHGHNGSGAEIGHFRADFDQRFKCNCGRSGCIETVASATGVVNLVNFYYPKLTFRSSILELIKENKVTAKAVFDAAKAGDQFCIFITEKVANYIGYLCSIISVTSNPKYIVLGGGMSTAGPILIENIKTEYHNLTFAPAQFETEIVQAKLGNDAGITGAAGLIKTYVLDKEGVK

Compound `OC[C@H]1OC(O)[C@H](O)[C@@H](O)[C@@H]1O` (stereo partly shown) [glucose] has a Km of 5.18 ± 0.5 mM.
